Several values for one entry are separate records, joined by “and”; a condition that tells them apart may be missing. Identical values can stand only once. Entries after “also recorded” stand apart in the source; their conditions may differ.
Key:
[1] = Serum pentamidine concentrations (Example 3); format: in vivo, human; settings: aerosol
Pneumocystis carinii = assay: Randomized clinical trial of PCP prophylaxis (Example 8); format: in vivo, human
[2] = all strata, eligible, PCP within 60 days, 30 mg
[3] = all strata, eligible, PCP within 60 days, 150 mg
[4] = all strata, eligible, PCP within 60 days, 300 mg, p .004 (30 vs 300 mg)
[5] = all strata, eligible, confirmed PCP within 60 days, 30 mg
[6] = all strata, eligible, confirmed PCP within 60 days, 150 mg
[7] = all strata, eligible, confirmed PCP within 60 days, 300 mg, p .0008 (30 vs 300 mg)
[8] = all strata, intention to treat, all PCP, 30 mg
[9] = all strata, intention to treat, all PCP, 150 mg
[10] = all strata, intention to treat, all PCP, 300 mg, p .02 (30 vs 300 mg)
[11] = prior PCP strata, eligible, PCP within 60 days, 30 mg
[12] = prior PCP strata, eligible, PCP within 60 days, 150 mg
[13] = prior PCP strata, eligible, PCP within 60 days, 300 mg, p .006 (30 vs 300 mg)
[14] = prior PCP strata, eligible, confirmed PCP within 60 days, 30 mg
[15] = prior PCP strata, eligible, confirmed PCP within 60 days, 150 mg

Structure (SMILES): N=C(N)c1ccc(OCCCCCOc2ccc(C(=N)N)cc2)cc1 [pentamidine, p,p'-(pentamethylenedioxy)dibenzamidine]
- serum pentamidine concentration ([1]; 2 patients at end of therapy): 22 ng/mL and 32 ng/mL
- serum pentamidine concentration ([1]; 12/14 patients): less than 10 ng/mL
- Completed without Endpoint (Pneumocystis carinii; 30 mg every two weeks): 26
- Died, Due to PCP (Pneumocystis carinii; 30 mg every two weeks): 5
- Died, Not due to PCP (Pneumocystis carinii; 30 mg every two weeks): 51
- Extrapulmonary Pneumocystis (Pneumocystis carinii; 30 mg every two weeks): 0
- PCP, Confirmed (Pneumocystis carinii; 30 mg every two weeks): 32
- PCP, Unconfirmed (Pneumocystis carinii; 30 mg every two weeks): 9
- Completed without Endpoint (Pneumocystis carinii; 150 mg every two weeks): 38
- Died, Due to PCP (Pneumocystis carinii; 150 mg every two weeks): 6
- Died, Not due to PCP (Pneumocystis carinii; 150 mg every two weeks): 47
- Extrapulmonary Pneumocystis (Pneumocystis carinii; 150 mg every two weeks): 1
- PCP, Confirmed (Pneumocystis carinii; 150 mg every two weeks): 28
- PCP, Unconfirmed (Pneumocystis carinii; 150 mg every two weeks): 4
- Completed without Endpoint (Pneumocystis carinii; 300 mg every four weeks): 42
- Died, Due to PCP (Pneumocystis carinii; 300 mg every four weeks): 5
- Died, Not due to PCP (Pneumocystis carinii; 300 mg every four weeks): 46
- Extrapulmonary Pneumocystis (Pneumocystis carinii; 300 mg every four weeks): 0
- PCP, Confirmed (Pneumocystis carinii; 300 mg every four weeks): 16
- PCP, Unconfirmed (Pneumocystis carinii; 300 mg every four weeks): 12
- case fatality rate from first acute PCP episode (Pneumocystis carinii; 16 of 101 PCP episodes): 15.8%
- share of all deaths due to PCP (Pneumocystis carinii; 19 of 160): 11.9%
- all cause mortality between treatment arms (Pneumocystis carinii; 30, 150, 300 mg): did not significantly differ between the three treatment arms
- time to PCP occurrence, dose comparison (Pneumocystis carinii; Kaplan-Meier, 300 mg every 4 weeks vs 30 mg every 2 weeks, 150 mg vs 30 mg): 300 mg of aerosolized pentamidine given every 4 weeks was consistently superior to 30 mg of aerosolized pentamidine given every 2 weeks and The 150 mg arm was superior to the 30 mg arm but less so than the 300 mg arm
- all cause mortality (Pneumocystis carinii; Kaposi's sarcoma stratum): 36%
- deaths due to PCP (Pneumocystis carinii; all doses): Nineteen deaths occurred due to PCP
- deaths (Pneumocystis carinii; all doses, 408 participants): 160
- PCP episodes (Pneumocystis carinii; all doses, KS stratum): 8
- PCP episodes (Pneumocystis carinii; all doses, Other HIV stratum): 15
- PCP episodes (Pneumocystis carinii; all doses, total and prior PCP stratum): One hundred-one PCP episodes; also recorded: Seventy-eight occurred in the prior PCP stratum
- Relative Hazard of PCP: Cox regression (Pneumocystis carinii; all strata, confirmed PCP on study drug, 30 vs 300): 3.9 and 3.86
- Relative Hazard of PCP: Cox regression (Pneumocystis carinii; all strata, confirmed PCP on study drug, 30 vs. 150): 1.7 and 1.71
- No PCP (participants) (Pneumocystis carinii; [2]): 89
- PCP (participants) (Pneumocystis carinii; [2]): 28
- No PCP (participants) (Pneumocystis carinii; [3]): 102
- PCP (participants) (Pneumocystis carinii; [3]): 18
- No PCP (participants) (Pneumocystis carinii; [4]): 113
- PCP (participants) (Pneumocystis carinii; [4]): 16
- No PCP (participants) (Pneumocystis carinii; [5]): 95
- PCP (participants) (Pneumocystis carinii; [5]): 22
- No PCP (participants) (Pneumocystis carinii; [6]): 104
- PCP (participants) (Pneumocystis carinii; [6]): 16
- No PCP (participants) (Pneumocystis carinii; [7]): 121
- PCP (participants) (Pneumocystis carinii; [7]): 8
- No PCP (participants) (Pneumocystis carinii; [8]): 94
- PCP (participants) (Pneumocystis carinii; [8]): 41
- No PCP (participants) (Pneumocystis carinii; [9]): 102
- PCP (participants) (Pneumocystis carinii; [9]): 32
- No PCP (participants) (Pneumocystis carinii; [10]): 111
- PCP (participants) (Pneumocystis carinii; [10]): 28
- Relative Hazard of PCP: Cox regression (Pneumocystis carinii; all strata, intention to treat, 30 vs 300): 1.78
- Relative Hazard of PCP: Cox regression (Pneumocystis carinii; all strata, intention to treat, 30 vs. 150): 1.21
- developed PCP (Pneumocystis carinii; initial CD4 counts greater than 200, no prior PCP, two of 39): 5.1%
- developed PCP (Pneumocystis carinii; initial CD4 counts less than 200, no prior PCP, 12 of 89): 13%
- all cause mortality (Pneumocystis carinii; other HIV stratum): 13%
- Relative Hazard of PCP: Cox regression (Pneumocystis carinii; prior PCP strata, confirmed PCP on study drug, 30 vs 300): 4.57
- Relative Hazard of PCP: Cox regression (Pneumocystis carinii; prior PCP strata, confirmed PCP on study drug, 30 vs. 150): 2.10
- No PCP (participants) (Pneumocystis carinii; [11]): 42
- PCP (participants) (Pneumocystis carinii; [11]): 25
- No PCP (participants) (Pneumocystis carinii; [12]): 51
- PCP (participants) (Pneumocystis carinii; [12]): 16
- No PCP (participants) (Pneumocystis carinii; [13]): 60
- PCP (participants) (Pneumocystis carinii; [13]): 14
- No PCP (participants) (Pneumocystis carinii; [14]): 47
- PCP (participants) (Pneumocystis carinii; [14]): 20
- No PCP (participants) (Pneumocystis carinii; [15]): 53
- PCP (participants) (Pneumocystis carinii; [15]): 14
